Legend:
Human DNA polymerase δ = target: T1, Human DNA polymerase δ (Homo sapiens, UniProt P28340); experiment: DNA polymerase assay, human pol δ; type: biochemical
T1 construct: Human pols δ and ε were purified by the nuclear fractionation of human peripheral blood cancer cells (Molt-4); endogenous in cells; host or cells: Molt-4
T1 sequence (P28340 1-1107): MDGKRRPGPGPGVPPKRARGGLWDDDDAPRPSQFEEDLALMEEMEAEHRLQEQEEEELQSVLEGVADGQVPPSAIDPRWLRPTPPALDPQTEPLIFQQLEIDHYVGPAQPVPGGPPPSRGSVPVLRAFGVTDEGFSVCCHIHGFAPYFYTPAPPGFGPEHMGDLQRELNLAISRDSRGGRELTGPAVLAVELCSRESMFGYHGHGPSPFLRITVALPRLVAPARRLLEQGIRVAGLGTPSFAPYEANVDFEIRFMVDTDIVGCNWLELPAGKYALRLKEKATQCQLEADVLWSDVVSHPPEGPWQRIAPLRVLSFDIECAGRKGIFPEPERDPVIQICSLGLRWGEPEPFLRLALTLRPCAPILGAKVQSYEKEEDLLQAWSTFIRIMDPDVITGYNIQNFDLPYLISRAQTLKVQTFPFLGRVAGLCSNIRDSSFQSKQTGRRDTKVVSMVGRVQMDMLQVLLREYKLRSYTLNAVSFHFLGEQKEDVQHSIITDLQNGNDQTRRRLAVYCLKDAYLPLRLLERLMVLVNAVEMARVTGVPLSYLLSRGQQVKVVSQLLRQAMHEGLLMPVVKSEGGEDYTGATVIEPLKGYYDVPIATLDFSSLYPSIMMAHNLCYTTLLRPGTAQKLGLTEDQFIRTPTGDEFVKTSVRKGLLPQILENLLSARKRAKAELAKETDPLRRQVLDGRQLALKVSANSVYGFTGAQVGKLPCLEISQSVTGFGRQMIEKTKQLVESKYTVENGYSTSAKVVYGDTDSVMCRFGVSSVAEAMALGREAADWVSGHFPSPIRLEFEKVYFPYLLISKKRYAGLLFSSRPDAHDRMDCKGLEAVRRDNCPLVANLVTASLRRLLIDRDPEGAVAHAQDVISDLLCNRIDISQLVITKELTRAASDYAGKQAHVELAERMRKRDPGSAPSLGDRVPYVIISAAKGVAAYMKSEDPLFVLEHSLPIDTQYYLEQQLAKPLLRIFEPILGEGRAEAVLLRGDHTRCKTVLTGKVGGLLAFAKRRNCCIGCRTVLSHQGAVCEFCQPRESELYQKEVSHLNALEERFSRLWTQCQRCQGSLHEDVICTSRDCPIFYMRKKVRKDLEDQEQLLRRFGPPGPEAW
Source text: (§1) Pol α was purified from calf thymus by immuno-affinity column chromatography as described by Tamai et al.. Recombinant rat pol β was purified from E. coli JMpβ5 as described by Date et al.. The human pol γ catalytic gene was cloned into pFastBac. Histidine-tagged enzyme was expressed using the BAC-TO-BAC HT Baculovirus Expression System according to the supplier's manual (LIFE TECHNOLOGIES, MD, USA) and purified using ProBoundresin (Invitrogen Japan, Tokyo, Japan). Human pols δ and ε were purified by the nuclear fractionation of human peripheral blood cancer cells (Molt-4) using the second subunit of pols δ and ε-conjugated affinity column chromatography, respectively. Recombinant human pols η and ι tagged with His6 at their C-terminal were expressed in SF9 insect cells using the baculovirus expression system, and were purified as described previously. A truncated form of pol κ (i.e., hDINB1DC) with 6 x His-tags attached at the C-terminal was overproduced using the BAC-to-BAC Baculovirus Expression System kit (GIBCO BRL, MD, USA) and purified as described previously. […]
(§2) For pols, poly(dA)/oligo(dT)12-18 (A/T = 2/1) and dTTP were used as the DNA template-primer and nucleotide (i.e., dNTP) substrate, respectively. […] Activity without the inhibitor was considered 100%, and the remaining activity at each concentration of the inhibitor was determined relative to this value. […]

mammalian pols = experiment: DNA polymerase assays, all mammalian pols tested; type: biochemical; details: all mammalian pols tested (α, β, γ, δ, ε, η, ι, κ, λ); read-out: range of IC50 values for mammalian pols
Source text: as §1, §2

For `CC1=CC[C@H]2C(C)(C)CCC[C@]2(C)[C@H]1CCCCCCCCCCCCCCCCC(=O)O` (relative stereo) [compound 11, (1S*,4aS*,8aS*)-17-(1,4,4a,5,6,7,8,8a-octahydro-2,5,5,8a-tetramethylnaphthalen-1-yl)heptadecanoic acid], the IC50 (Human DNA polymerase δ) was 4.89 ± 0.24 µM and the IC50 (mammalian pols) was 3.22 to 8.76 µM.

From paper PMC6253949, “The Inhibitory Action of Kohamaic Acid A Derivatives on Mammalian DNA Polymerase β” (Molecules, 2008)
